Laboratory results published in article PMC3155243 (Molecular cancer therapeutics, 2011).
Blank lines part the entries; values can stand above or below the molecule they belong to.

Columns and labels:
[1] = test system: advanced solid tumours; conditions: bortezomib days 1, 4, 8 and 11 with paclitaxel days 1 and 8; cited from earlier work
[2] = test system: proteasome; conditions: bortezomib dose 0.7 mg/m^2; cited from earlier work
[3] = human, in vivo
[4] = with bortezomib and paclitaxel; cited from earlier work
[5] = test system: BMK cancer cell lines and allograft tumors with RAS/RAF/MAPK pathway activation; conditions: baby mouse kidney (BMK) epithelial cell model; cited from earlier work
[6] = clinical; conditions: human, plasma, intravenous
[7] = Paclitaxel plasma pharmacokinetics
[8] = Dose Level 1: paclitaxel 40 mg/m^2 + bortezomib 0.7 mg/m^2
[9] = Dose Level 2: paclitaxel 45 mg/m^2 + bortezomib 0.75 mg/m^2
[10] = Dose Level 4: paclitaxel 60 mg/m^2 + bortezomib 1.0 mg/m^2

Structure (SMILES): CC(C)C[C@H](NC(=O)[C@H](Cc1ccccc1)NC(=O)c1cnccn1)B(O)O [bortezomib]
recommended phase II dose of bortezomib [1]: 1.3 mg/m^2
effect on proteasome function [2]: effectively inhibit proteasome function
MTD of bortezomib [3]: 1.0 mg/m^2

Structure (SMILES): N.N.O=C([O-])C1(C(=O)[O-])CCC1.[Pt+2] [carboplatin]
recommended phase II dose of carboplatin [4]: 6 AUC

Tmax [6]: 1 h
clearance [6]: 283 to 800 mL/min
AUC (last) [7, 8]: 1.14 ± 0.45 µg·h/mL
T1/2 [7, 8]: 1.75 ± 1.45 h
AUC (last) [7, 9]: 1.43 ± 0.90 µg·h/mL
T1/2 [7, 9]: 0.69 ± 0.20 h
AUC (last) ([7]; Dose Level 3: paclitaxel 51 mg/m^2 + bortezomib 0.86 mg/m^2): 1.70 ± 0.37 µg·h/mL
AUC (last) [7, 10]: 2.29 ± 0.74 µg·h/mL
T1/2 [7, 10]: 1.83 ± 0.86 h
clearance [7, 10]: 27.2 L/h
Structure (SMILES): CC(=O)O[C@H]1C(=O)[C@@]2(C)[C@H]([C@H](OC(=O)c3ccccc3)[C@]3(O)C[C@H](OC(=O)[C@H](O)[C@@H](NC(=O)c4ccccc4)c4ccccc4)C(C)=C1C3(C)C)[C@]1(OC(C)=O)CO[C@@H]1C[C@@H]2O [paclitaxel]
effect on BIM [5]: induced selective BIM accumulation
